Test results from US12310964B2, “Compositions and methods for the treatment of Lowe Syndrome” (Purdue Research Foundation, priority 2020, dated 2025).

What was measured:
mTOR pathway in LS cells = assay: Western blotting of PI3K/Akt/mTOR pathway; type: cell-based, Human
Experimental: Normal and LS cells were seeded on 100 mm plates and grown to 60-70% confluency in complete media. Then media was exchanged with 0.1% serum DMEM media with DMSO or 10 nM rapamycin for 12 hrs. The cells were washed twice with ice-cold PBS, collected by scraping cells in 200 μl/plate of lysis buffer (25 mM HEPES-KOH, pH7.4, 250 mM NaCl, 1% Triton-X-100 supplement with phosphatase and protease inhibitors), and lysed by passing the cells 10 times through a 26G1/2 needle. The lysates were centrifuged at 14,000×g for 20 min at 4° C., and the supernatant fractions were collected. The samples were analyzed by SDS-PAGE using 7% or 10% polyacrylamide gels and transferred to nitrocellulose membranes. The membranes were blocked with 5% skim milk in PBST (1× phosphate-buffered saline with Tween® detergent) and immunoblotted with the indicated primary and HRP-conjugated secondary antibodies.
The activation of the Akt and mTOR signaling pathways in LS cells treated or not with rapamycin was examined. Cell lysates were prepared, resolved by SDS-PAGE and the presence of phosphorylated and dephosphorylated key elements of the Akt and mTOR pathways were investigated by Western blotting with specific antibodies (FIG. 5D).

LS patient cells [1] = assay: Ciliogenesis assay; type: cell-based, Human; details: serum starvation
Experimental: Cells were seeded on glass cover slips and grown for 24 h in complete media. Then media was replaced by 0.1% serum DMEM (starvation media) containing vehicle or the drug to induce ciliogenesis for the indicated times. Cells were then fixed in 4% formaldehyde—PBS for 10 min and immuno-labeled with anti-acetylated tubulin antibody (see Table 2). At least 50 cells were imaged for every experiment and experiments were repeated at least thrice. The fraction of cells displaying cilia and cilia length were determined as described previously (Coon et al. (2012), supra).

LS patient cells [2] = assay: Cell spreading assay after a predetermined time-point (cell area); type: cell-based, Human; details: for LS cell spreading phenotype: LS patient fibroblasts, 30 min after seeding on fibronectin
Experimental: Two approaches to monitor cell spreading were used: after a predetermined time-point and at multiple time points.
1) Spreading after a Predetermined Time-Point.
(§1) Human dermal fibroblasts (12 h after seeding) were treated with the indicated drug (or vehicle) in 0.1% serum for the indicated time. After drug treatment, the cells were lifted with 20 mM EDTA (ethylenediaminetetraacetic acid) in PBS (phosphate-buffered saline), pelleted at 300×g for 5 min and resuspended in 1% serum in the presence of drug or vehicle. Cell suspensions were then set in a rotator for 1 hour before seeding them on fibronectin-coated coverslips for 30 min, undisturbed, to allow attachment and spreading. After spreading, coverslips were gently rinsed with PBS and fixed in 4% formaldehyde for 10 min at room temperature. Cells were stained with rhodamine—phalloidin and imaged by epifluorescence microscopy. At least 50 cells were quantified per experiment by tracing and measuring cell areas by using the magic wand tool in ImageJ software (National Institutes of Health (NIH), Bethesda, MD, USA).
(§2) Cell spreading on fibronectin-coated surfaces of cells treated with RhoA modulators in comparison to untreated cells was observed. Cells were fixed and stained with fluorescently labeled-phalloidin after 30 min spreading time at 37° C. Following imaging, cell area measurements were performed.

normal cells = assay: Cell adhesion by time-lapse microscopy; type: cell-based, Human
Experimental: Human dermal fibroblasts were treated as described above, seeded on fibronectin-coated LabTek chambers, and allowed to attach and spread. Cells were imaged at intervals of 10 min after seeding for 8 h using 20× objective in a Zeiss Axiovert inverted microscope. Number of detaching cells was quantified every 10 min up to the first hour by using the cell counter tool in ImageJ (NIH). To determine spreading kinetics, individual cells were tracked in each time lapse image and were scored from 1-5 based on general cell morphology. Briefly, cells that were just attached and looked circular with no protrusions or visible extensions received a score of 1. Cells with needle-like (filopodia) projections were scored 2, cells with lamellopodia-like extensions were scored 3, cells with more extended lamellopodia-like extensions and increased cell area were given a score of 4, and a further increase in cell area, often accompanied by isotropic spread morphology, was given a score of 5. Alternatively, cells were treated as described above and allowed to attach on fibronectin-coated dishes. Immediately after seeding, the cells were imaged with a 10× objective simultaneously using up to 3 Cytosmart Imaging Systems (Lonza, Basel, Switzerland) at intervals of 30 s for 2 h. Number of cells attached was quantified every 10 min up to the first hour using the Cell Counter tool in ImageJ software (NIH).

Normal fibroblasts = assay: Cell spreading assay after a predetermined time-point (cell area); type: cell-based, Human; details: 30 min after seeding on fibronectin
Experimental: as §1, §2

HK2 OCRL1 K.O. cells = assay: Indirect immunofluorescence for lysosomes (Lamp2, autolysosomes); type: cell-based, Human; details: rapamycin (10 nM) or WYE (1 μM)
Experimental: Following treatment with drugs, cells were washed and fixed with 4% formaldehyde-PBS for 10 min and immune-labeled for LAMP2 (lysosome-associated membrane protein 2). Random fields were imaged using a Zeiss Axiovert inverted microscope using a 40× objective with constant fluorescence exposure times.

LS patient cells [3] = assay: Viability/toxicity assessment (cell counting, morphology, MTT); type: cell-based, Human; details: for toxicity (viability and stress-induced changes in morphology): LS cells after exposure to statins
Experimental: Cells were incubated with the indicated drugs for the specified times at different concentrations as described in low serum (0.1%) media to avoid substantial protein-mediated drug sequestration. In addition to cell counting post-treatment, a sample of cells seeded on fibronectin-coated coverslips was fixed and stained with fluorescein isothiocyanate (FITC)-phalloidin and DAPI (4′,6-diamidino-2-phenylindole) for cell morphology inspection. Viability was monitored by performing MTT (3-(4,5-dimethylthiazol-2-yl)-2,5-diphenyltetrazolium bromide) assays as follows: Following treatment of cells (in triplicates) with indicated drugs at different concentrations for specified times, media were aspirated and replaced with MTT solution (freshly prepared at 0.5 mg/ml in complete media) and incubated for 1.5 h. Additionally, a blank control with only MTT reagent containing no cells was also prepared. Following incubation, solution was aspirated and MTT was immediately solubilized using 1 mL DMSO (dimethylsulfoxide) (per well) by gentle pipetting. Absorbance values of solubilized MTT solution from the different wells were measured at 570 nm using a spectrophotometer.

[4] = current approved rapamycin treatments; cited from earlier work
[5] = system: HK2 and HEK293T OCRL1 K.O. cells; assay: Cell spreading assay in kidney knock-out cells; type: cell-based, Human; details: HK2 and HEK293T OCRL1 K.O. vs wild-type
Experimental: Normal (GM07492) and LS primary dermal fibroblasts (GM01676 and GM03265) were obtained from the NIHGMS Human Genetic Cell Repository (Coriell Institute for Medical Research, Camden, NJ, USA). Cells were maintained in Dulbecco's Modified Eagle Medium (DMEM), streptomycin/penicillin, 2 mM L-glutamine and 15% fetal bovine serum (FBS) at 37° C. in a 5% CO2 incubator. When needed, cells were transferred to fibronectin-coated surfaces (plates or coverslips) prepared by incubation with 10 μg/mL fibronectin for 2 h at 37° C. Normal human proximal tubule epithelial (HK2) and human embryonic kidney epithelial 293T (HEK293T) cells obtained from ATCC were grown in DMEM, streptomycin/penicillin, 2 mM L-glutamine and 10% FBS at 37° C. in a 5% CO2 incubator. OCRL1^−/− (OCRL K.O) HK2 and HEK293T cells were prepared by GenScript, Inc., Piscataway, NJ, USA, and maintained under the same conditions as their normal counterparts. Characterization of these cell lines has been described before (Hsieh et al., PLoS One 10.1371/jounal.pone.0192635 (Feb. 14, 2018)).
Human dermal fibroblasts (12 h after seeding) were treated with the indicated drug (or vehicle) in 0.1% serum for the indicated time. […] At least 50 cells were quantified per experiment by tracing and measuring cell areas by using the magic wand tool in ImageJ software (National Institutes of Health (NIH), Bethesda, MD, USA).

CC(C)n1nc(-c2ccc3oc(N)nc3c2)c2c(N)ncnc21 [INK128]
mTOR activation / phosphorylation (mTOR pathway in LS cells): able to decrease mTOR phosphorylation
ciliogenesis / PC assembly defects in LS cells (LS patient cells [1]): rescue ciliogenesis defects in LS cells

O=S(=O)(c1cccc2c(I)cccc12)N1CCCNCC1 [ML-7]
LS cell spreading phenotype (LS patient cells [2]): able to mitigate the cell spreading phenotype

CCCC[C@@H](C=O)NC(=O)[C@H](CC(C)C)NC(=O)OCc1ccccc1 [RhoA activator, calpeptin]
proportion of de-attaching cells (normal cells): increased proportion of de-attaching cells
cell spreading of normal cells (Normal fibroblasts): displayed a “LS-like” cell spreading phenotype
LS cell spreading phenotype (LS patient cells [2]): worsened the already impaired spreading ability of LS cells

C[C@@H]1COCCN1c1cc(=O)n2c(n1)N(Cc1cncc(Cl)c1)[C@H](C(F)(F)F)CC2 [SAR405]
mTOR activation / phosphorylation (mTOR pathway in LS cells): did not affect mTOR activation
ciliogenesis / PC assembly defects in LS cells (LS patient cells [1]): had no effect on ciliogenesis by LS cells

CNC(=O)Nc1ccc(-c2nc(N3CC4CCC(C3)O4)c3cnn(C4CCC5(CC4)OCCO5)c3n2)cc1 [WYE132]
mTOR activation / phosphorylation (mTOR pathway in LS cells): able to decrease mTOR phosphorylation
autolysosome deficiencies (fraction of cells displaying autolysosomes) (HK2 OCRL1 K.O. cells): can be rescued
ciliogenesis / PC assembly defects in LS cells (LS patient cells [1]): rescue ciliogenesis defects in LS cells

CC(C)c1c(C(=O)Nc2ccccc2)c(-c2ccccc2)c(-c2ccc(F)cc2)n1CC[C@@H](O)C[C@@H](O)CC(=O)O [atorvastatin]
LS cell spreading phenotype (LS patient cells [2]): mitigated to a certain extent the LS spreading phenotype

COCc1c(C(C)C)nc(C(C)C)c(/C=C/[C@@H](O)C[C@@H](O)CC(=O)O)c1-c1ccc(F)cc1 [cerivastatin]
toxicity (viability and stress-induced changes in morphology) (LS patient cells [3]): substantially toxic

CSCC[C@H](NC(=O)c1ccc(NC[C@@H](N)CS)cc1-c1ccccc1)C(=O)O [farnesylation inhibitor]
LS cell spreading phenotype (LS patient cells [2]): rescue the cell spreading phenotype of LS patient cells

O=S(=O)(c1cccc2cnccc12)N1CCCNCC1 [fasudil]
LS cell spreading phenotype (LS patient cells [2]): in contrast to the ROCK-inhibitor fasudil, the MLCK-inhibitor ML-7 was able to mitigate

O=C(O)C[C@H](O)C[C@H](O)/C=C/c1c(C2CC2)nc2ccccc2c1-c1ccc(F)cc1 [pitavastatin]
toxicity (viability and stress-induced changes in morphology) (LS patient cells [3]): substantially toxic
LS cell spreading phenotype (LS patient cells [2]): mitigated to a certain extent the LS spreading phenotype
ranking of statins: rescue effect over needed dose and toxicity (LS patient cells [2]; LS spreading defects): rosuvastatin>pitavastatin>>>simvastatin and others

CO[C@H]1C[C@@H]2CC[C@@H](C)[C@@](O)(O2)C(=O)C(=O)N2CCCC[C@H]2C(=O)O[C@H]([C@H](C)C[C@@H]2CC[C@@H](O)[C@H](OC)C2)CC(=O)[C@H](C)/C=C(\C)[C@@H](O)[C@@H](OC)C(=O)[C@H](C)C[C@H](C)/C=C/C=C/C=C/1C [rapamycin]
plasma levels [4]: 0.01 µM
toxicity on LS cells (decrease in viability, MTT) (LS patient cells [3]; after 72 h-treatment): 10-15%

C3 transferase [RhoA inhibitor]
cell spreading phenotype in OCRL1 K.O. kidney cells [5]: confirmed
cell spreading / membrane remodeling phenotype in cells from another LS patient (LS patient cells [2]; LS2 cells, FIG. 8A): confirmed
LS cell spreading phenotype (LS patient cells [2]): ameliorated the cell spread phenotype
